Laboratory results: the RepoRT retention time repository (doi:10.1016/j.jchromb.2020.122105)

How the values were obtained:
Details in all cases: stereoisomer not certain
[1] = RP, Waters ACQUITY UPLC BEH C18, 100 × 2.1 mm, 1.7 µm, 0.1 mL/min, estimated dead time 2.2 min; A: water + 0.1% formic acid, pH 3; B: methanol + 0.1% formic acid, pH 3; gradient (min/%B) 0/5 5/5 25/95 25.1/100 35/100 35.1/5 45/5
[2] = RP, Waters CORTECS T3, 100 × 2.1 mm, 2.7 µm, 0.3 mL/min, estimated dead time 0.73 min; A: water + 0.1% formic acid, pH 3; B: methanol + 0.1% formic acid, pH 3; gradient (min/%B) 0/0 5/0 25/100 30/100 30.1/0 35/0
[3] = RP, Waters CORTECS T3, 100 × 2.1 mm, 2.7 µm, 0.2 mL/min, estimated dead time 1.1 min; A: water + 0.1% formic acid, pH 3; B: methanol + 0.1% formic acid, pH 3; gradient (min/%B) 0/0 1/0 6/5 30/100 35/100 35.1/0 40/0
[4] = RP, Waters CORTECS T3, 100 × 2.1 mm, 2.7 µm, 0.1 mL/min, estimated dead time 2.2 min; A: water + 0.1% formic acid, pH 3; B: methanol + 0.1% formic acid, pH 3; gradient (min/%B) 0/5 5/5 25/95 25.1/100 35/100 35.1/5 45/5
[5] = RP, Waters CORTECS T3, 100 × 2.1 mm, 2.7 µm, 0.25 mL/min, estimated dead time 0.88 min; A: water + 0.1% formic acid, pH 3; B: methanol + 0.1% formic acid, pH 3; gradient (min/%B) 0/0 1/0 6/5 30/100 35/100 35.1/0 40/0
[6] = RP, Waters CORTECS T3, 100 × 2.1 mm, 2.7 µm, 0.1 mL/min, estimated dead time 2.2 min; A: water + 0.1% formic acid, pH 3; B: methanol + 0.1% formic acid, pH 3; gradient (min/%B) 0/0 1/0 6/5 30/100 35/100 35.1/0 40/0
[7] = RP, Waters ACQUITY UPLC BEH C18, 100 × 2.1 mm, 1.7 µm, 0.1 mL/min, estimated dead time 2.2 min; A: water + 0.1% formic acid, pH 3; B: methanol + 0.1% formic acid, pH 3; gradient (min/%B) 0/5 5/5 25/95 25.1/100 35/100 35.1/5 45/5; remark: listed apart in the source
[8] = RP, Waters CORTECS T3, 100 × 2.1 mm, 2.7 µm, 0.15 mL/min, estimated dead time 1.5 min; A: water + 0.1% formic acid, pH 3; B: methanol + 0.1% formic acid, pH 3; gradient (min/%B) 0/0 1/0 6/5 30/100 35/100 35.1/0 40/0
[9] = RP, Waters CORTECS T3, 100 × 2.1 mm, 2.7 µm, 0.3 mL/min, estimated dead time 0.73 min; A: water + 0.1% formic acid, pH 3; B: methanol + 0.1% formic acid, pH 3; gradient (min/%B) 0/5 5/5 25/95 25.1/100 35/100 35.1/5 45/5
[10] = RP, Waters CORTECS T3, 100 × 2.1 mm, 2.7 µm, 0.2 mL/min, estimated dead time 1.1 min; A: water + 0.045% formic acid + 0.11% ammonium hydroxide, pH 7; B: methanol; gradient (min/%B) 0/5 5/5 25/95 25.1/100 35/100 35.1/5 45/5
[11] = RP, Waters ACQUITY UPLC BEH C18, 100 × 2.1 mm, 1.7 µm, 0.1 mL/min, estimated dead time 2.2 min; A: water + 0.1% formic acid, pH 3; B: methanol + 0.1% formic acid, pH 3; gradient (min/%B) 0/5 5/5 25/100 30/100 30.1/5 35/5
[12] = RP, Waters CORTECS T3, 100 × 2.1 mm, 2.7 µm, 0.3 mL/min, estimated dead time 0.73 min; A: water + 0.1% formic acid, pH 3; B: methanol + 0.1% formic acid, pH 3; gradient (min/%B) 0/5 5/5 25/100 30/100 30.1/5 35/5
[13] = RP, Waters ACQUITY UPLC BEH C18, 100 × 2.1 mm, 1.7 µm, 0.2 mL/min, estimated dead time 1.1 min; A: water + 0.025% formic acid + 20 mM ammonium acetate + 0.055% ammonium hydroxide, pH 7; B: methanol; gradient (min/%B) 0/5 5/5 25/100 30/100 30.1/5 35/5
[14] = RP, Waters CORTECS T3, 100 × 2.1 mm, 2.7 µm, 0.3 mL/min, estimated dead time 0.73 min; A: water + 0.1% formic acid, pH 3; B: methanol + 0.1% formic acid, pH 3; gradient (min/%B) 0/0 1/0 6/5 30/100 35/100 35.1/0 40/0
[15] = RP, Waters ACQUITY UPLC BEH C18, 100 × 2.1 mm, 1.7 µm, 0.1 mL/min, estimated dead time 2.2 min; A: water + 0.045% formic acid + 0.11% ammonium hydroxide, pH 7; B: methanol; gradient (min/%B) 0/5 5/5 25/95 25.1/100 35/100 35.1/5 45/5
[16] = RP, Thermo Scientific Hypercarb, 150 × 2.1 mm, 5 µm, 0.1 mL/min, estimated dead time 3.3 min; A: water + 0.1% formic acid, pH 3; B: methanol + 0.1% formic acid, pH 3; gradient (min/%B) 0/5 5/5 20/100 35/100 35.1/5 45/5
[17] = HILIC, Waters XBridge BEH Amide, 100 × 2.1 mm, 2.5 µm, 0.5 mL/min, estimated dead time 0.44 min; A: water + 0.1% acetic acid + 10 mM ammonium acetate, pH 4; B: 5% water + 95% acetonitrile + 0.1% acetic acid + 10 mM ammonium acetate, pH 4; gradient (min/%B) 0/95 5/95 20/57 25/57 30/95 40/95

Row | SMILES | LC retention time [1] [min] | LC retention time [2] [min] | LC retention time [3] [min] | LC retention time [4] [min] | LC retention time [5] [min] | LC retention time [6] [min] | LC retention time [7] [min] | LC retention time [8] [min] | LC retention time [9] [min] | LC retention time [10] [min] | LC retention time [11] [min] | LC retention time [12] [min] | LC retention time [13] [min] | LC retention time [14] [min] | LC retention time [15] [min] | LC retention time [16] [min] | LC retention time [17] [min]
1 | CC(=O)OCC(=O)C1CCC2C3CCC4=CC(=O)CCC4(C)C3CCC12C (configuration not stated) [DEOXYCORTICOSTERONE ACETATE] | 25.3 | 20.8 | 25.2 | 25.4 | 24.4 | 22.4 | 25.3 | 26.3 | 21.1 | 22.4 | 24.5 | 20.4 | 21.6 | 23.8 | 25.3 |  | 
2 | CC1C(=O)Nc2ccccc21 (configuration not stated) [3-METHYL-2-OXINDOLE] | 19.2 | 14.2 | 17 | 18.8 | 16.1 | 15.2 | 19.2 | 18.4 | 13.6 | 15.2 | 18.9 | 13.3 |  |  | 19.2 | 32.3 | 
3 | CC12CCC(=O)C=C1CCC1C2C(=O)CC2(C)C1CCC2(O)C(=O)CO (configuration not stated) [CORTISONE] | 21 | 16.9 | 20.2 | 21 | 19.5 | 18 | 21 | 21.4 | 16.7 | 18 | 20.5 | 16.3 | 17.6 | 18.9 | 21 |  | 
4 | CC12CCC(=O)C=C1CCC1C2C(O)CC2(C)C1CCC2(O)C(=O)CO (configuration not stated) [CORTISOL] | 21.6 | 17.3 | 20.8 | 21.6 | 20 | 18.5 | 21.6 | 22 | 17.2 | 18.5 | 21.1 | 16.7 | 18.1 | 19.4 | 21.6 |  | 
5 | CCCCCCCCCCCC(=O)OC(CC(=O)[O-])C[N+](C)(C)C (configuration not stated) [LAUROYLCARNITINE] | 25.7 | 20.3 | 24.7 | 24.5 | 23.9 | 21.8 | 25.8 | 25.7 | 20.6 | 22.8 | 24.5 | 20 | 22.8 | 23.4 | 26.6 | 28.5 | 
6 | Cn1c(=O)c2c(ncn2C)n(C)c1=O [CAFFEINE] | 14.6 | 11.1 | 13 | 14.7 | 12.2 | 11.5 | 14.6 | 14.2 | 10.2 | 11.6 | 14.4 | 10.1 | 11.3 | 11.7 | 14.6 |  | 
7 | CSc1ncnc2nc[nH]c12 [THIOPURINE S-METHYLETHER] | 15.2 | 11 | 12.9 | 15.1 | 12.1 | 11.4 | 15.2 | 14.4 | 9.92 | 11.7 | 15.1 | 9.81 | 11.7 | 11.4 | 15.3 |  | 
8 | CCCCCCCCCCCCCCCC(O)C(N)CO (configuration not stated) [SPHINGANINE] | 27.9 | 22.4 | 27.4 | 26.6 | 26.6 | 24.1 | 28.1 | 28.2 | 23 |  | 26.4 | 22.2 |  | 26.1 | 29.1 |  | 
9 | C=CC1=C(C)C(C=c2[nH]c(=Cc3[nH]c(C=C4NC(=O)C(C)=C4C=C)c(C)c3CCC(=O)O)c(CCC(=O)O)c2C)=NC1=O [BILIVERDIN] | 23.5 |  | 23.5 | 23.8 | 22.9 | 21 | 23.5 | 24.7 | 19.9 | 20.9 | 22.8 |  | 19.9 | 22.6 | 23.4 |  | 
10 | OCCc1c[nH]c2ccccc12 [INDOLE-3-ETHANOL] | 18.5 | 13.6 | 16.2 | 18 | 15.3 | 14.5 | 18.5 | 17.7 | 12.9 | 14.5 | 18.2 | 12.7 | 14.7 | 14.6 | 18.5 |  | 
11 | Cc1cc2nc[nH]c2cc1C [DIMETHYLBENZIMIDAZOLE] | 15.6 | 11.4 | 13.4 | 15.1 | 12.6 | 11.8 | 15.7 | 14.7 | 10.5 | 16.5 | 15.2 | 10.4 | 16.6 | 12 | 20.5 |  | 0.65
